Read-outs that look alike come from different tables or passages of the source.
Columns and labels:
Assay in all cases: 72-hour CellTiter-Glo 2.0 growth inhibition screen (single agent, 9x9 combination dose matrix);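 on Best CI Level: inhibition effect level at which the best CI was calculated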
Format in all cases: cell-based
HCC44 = settings: for EC50: HCC44, 72 h; for Best CI Level: unit assumed
HPAF-II = settings: for Best CI Level: unit assumed
LS-513 = settings: for EC50: LS-513, 72 h
TOV-21G = system: TOV-21G;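 on Best CI Level: inhibition effect level at which the best CI was calculated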
MIA PaCa-2 = system: MIA PaCa-2;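 on Best CI Level: inhibition effect level at which the best CI was calculated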
[1] = HCC44 (KRAS G12C), enhancer + MEI-522 (Voruciclib), 72 h;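 on Best CI Level: inhibition effect level at which the best CI was calculated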
[2] = HCC44, Lung, Additional Single Agent Responses (inhibition, % I), 72 h
[3] = HCC44, Lung, growth inhibition (GI), AUC, single agent, 72 h
[4] = Homo sapiens, HCC44, Lung, Additional Single Agent Responses (inhibition, % I), 72 h
[5] = Homo sapiens, HCC44, Lung, growth inhibition (GI) curve, single agent, 72 h
[6] = Homo sapiens, HCC44, Lung, Additional Single Agent Responses, 72 h, read-out: Max Response (% I)
[7] = Homo sapiens, HCC44, Lung, growth inhibition (GI), single agent, 72 h, read-out: Max Response (% GI)
[8] = enhancer combined with MEI-522 (Voruciclib), HCC44 (Lung), 72 hours, inhibition data
[9] = HPAF-II (KRAS G12D), enhancer + MEI-522 (Voruciclib), 72 h;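 on Best CI Level: inhibition effect level at which the best CI was calculated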
[10] = HPAF-II, Pancreas, Additional Single Agent Responses (inhibition, % I), 72 h
[11] = HPAF-II, Pancreas, growth inhibition (GI), AUC, single agent, 72 h
[12] = Homo sapiens, HPAF-II, 72 h, Pancreas, Additional Single Agent Responses (inhibition, % I)
[13] = Homo sapiens, HPAF-II, 72 h, Pancreas, growth inhibition (GI) curve, single agent
[14] = Homo sapiens, HPAF-II, Pancreas, Additional Single Agent Responses, 72 h, read-out: Max Response (% I)
[15] = Homo sapiens, HPAF-II, Pancreas, growth inhibition (GI), single agent, 72 h, read-out: Max Response (% GI)
[16] = enhancer combined with MEI-522 (Voruciclib), HPAF-II (Pancreas), 72 hours, inhibition data
[17] = Homo sapiens, LS-513, Colorectal, Additional Single Agent Responses (inhibition, % I), 72 h
[18] = Homo sapiens, LS-513, Colorectal, growth inhibition (GI) curve, single agent, 72 h
[19] = Homo sapiens, LS-513, Colorectal, Additional Single Agent Responses, 72 h, read-out: Max Response (% I)
[20] = Homo sapiens, LS-513, Colorectal, growth inhibition (GI), single agent, 72 h, read-out: Max Response (% GI)
[21] = LS-513 (KRAS G12D), enhancer + MEI-522 (Voruciclib), 72 h;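 on Best CI Level: inhibition effect level at which the best CI was calculated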
[22] = LS-513, Colorectal, Additional Single Agent Responses (inhibition, % I), 72 h
[23] = LS-513, Colorectal, growth inhibition (GI), AUC, single agent, 72 h
[24] = enhancer combined with MEI-522 (Voruciclib), LS-513 (Colorectal), 72 hours, inhibition data
[25] = Homo sapiens, TOV21G, TOV-21G, Ovary, Additional Single Agent Responses (inhibition, % I), 72 h
[26] = Homo sapiens, TOV21G, TOV-21G, Ovary, Additional Single Agent Responses, 72 h, read-out: Max Response (% I)
[27] = Homo sapiens, TOV21G, TOV-21G, Ovary, growth inhibition (GI), single agent, 72 h, read-out: Max Response (% GI)
[28] = TOV-21G (KRAS G13C), enhancer + MEI-522 (Voruciclib), 72 h;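 on Best CI Level: inhibition effect level at which the best CI was calculated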
[29] = TOV-21G, Ovary, Additional Single Agent Responses (inhibition, % I), 72 h
[30] = TOV-21G, Ovary, growth inhibition (GI), AUC, single agent, 72 h
[31] = enhancer combined with MEI-522 (Voruciclib), TOV-21G (Ovary), 72 hours, inhibition data
[32] = Homo sapiens, MIA PaCa-2, Pancreas, Additional Single Agent Responses (inhibition, % I), 72 h
[33] = MIA PaCa-2 (KRAS G12C), enhancer + MEI-522 (Voruciclib), 72 h;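 on Best CI Level: inhibition effect level at which the best CI was calculated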
[34] = enhancer combined with MEI-522 (Voruciclib), MIA PaCa-2 (Pancreas), 72 hours, inhibition data

Compound: CC[C@@H]1C(=O)N(C)c2cnc(Nc3ccc(C(=O)N[C@H]4CC[C@H](N5CCN(CC6CC6)CC5)CC4)cc3OC)nc2N1C(C)C [Volasertib]
- Best CI (HCC44; [1]): 0.55
- Bliss Volume (HCC44; [1]): 6.88
- HSA volume (HCC44; [1]): 2.51
- Loewe Volume (HCC44; [1]): 0.65
- Synergy Score (HCC44; [1]): 6.97
- Response Area (HCC44; [2]): 4.07
- Response Area (HCC44; [3]): 5.39
- EC50 (HCC44; [4]): 4.2 nM
- EC50 (HCC44; [5]): 4.5 nM
- IC50 (HCC44; [4]): 6.3 nM
- Emax (HCC44; [6]): 81%
- GI50 (HCC44; [5]): 4.4 nM
- Emax (HCC44; [7]): 113%
- Best CI (HCC44; [8]): 0.83
- Bliss Volume (HCC44; [8]): −1.88
- HSA volume (HCC44; [8]): 0.12
- Loewe Volume (HCC44; [8]): −0.92
- Synergy Score (HCC44; [8]): 1.13
- Best CI Level (HCC44; [8]): 80%
- Best CI (HPAF-II; [9]): 0.66
- Bliss Volume (HPAF-II; [9]): −0.85
- HSA volume (HPAF-II; [9]): 0.04
- Loewe Volume (HPAF-II; [9]): −0.80
- Synergy Score (HPAF-II; [9]): 2.64
- Response Area (HPAF-II; [10]): 3.45
- Response Area (HPAF-II; [11]): 4.65
- EC50 (HPAF-II; [12]): 3.9 nM
- EC50 (HPAF-II; [13]): 3.9 nM
- IC50 (HPAF-II; Homo sapiens, HPAF-II, Pancreas, Additional Single Agent Responses (inhibition, % I), 72 h): 6.2 nM
- Emax (HPAF-II; [14]): 71%
- GI50 (HPAF-II; Homo sapiens, HPAF-II, Pancreas, growth inhibition (GI) curve, single agent, 72 h): 4.4 nM
- Emax (HPAF-II; [15]): 95%
- Best CI (HPAF-II; [16]): 0.52
- Bliss Volume (HPAF-II; [16]): −2.61
- HSA volume (HPAF-II; [16]): −0.36
- Loewe Volume (HPAF-II; [16]): −0.96
- Synergy Score (HPAF-II; [16]): 0.98
- Best CI Level (HPAF-II; [16]): 70%
- EC50 (LS-513; [17]): 18.6 nM
- EC50 (LS-513; [18]): 18.5 nM
- IC50 (LS-513; [17]): 23.9 nM
- Emax (LS-513; [19]): 74%
- GI50 (LS-513; [18]): 20 nM
- Emax (LS-513; [20]): 91%
- Best CI (LS-513; [21]): 0.60
- Bliss Volume (LS-513; [21]): 3.16
- HSA volume (LS-513; [21]): 1.53
- Loewe Volume (LS-513; [21]): 1.21
- Synergy Score (LS-513; [21]): 5.33
- Response Area (LS-513; [22]): 3.44
- Response Area (LS-513; [23]): 4.22
- Best CI (LS-513; [24]): 0.62
- Best CI Level (LS-513; [24]): 80
- Bliss Volume (LS-513; [24]): −1.28
- HSA volume (LS-513; [24]): 0.04
- Loewe Volume (LS-513; [24]): 0.06
- Synergy Score (LS-513; [24]): 1.44
- EC50 (TOV-21G; Homo sapiens, TOV21G, 72 h, TOV-21G, Ovary, Additional Single Agent Responses (inhibition, % I)): 10 nM
- EC50 (TOV-21G; Homo sapiens, TOV21G, 72 h, TOV-21G, Ovary, growth inhibition (GI) curve, single agent): 13.8 nM
- IC50 (TOV-21G; [25]): 11.6 nM
- Emax (TOV-21G; [26]): 89%
- GI50 (TOV-21G; Homo sapiens, TOV21G, TOV-21G, Ovary, growth inhibition (GI) curve, single agent, 72 h): 8.4 nM
- Emax (TOV-21G; [27]): 163%
- Best CI (TOV-21G; [28]): 0.56
- Bliss Volume (TOV-21G; [28]): 2.45
- HSA volume (TOV-21G; [28]): −4.18
- Loewe Volume (TOV-21G; [28]): −6.03
- Synergy Score (TOV-21G; [28]): 1.71
- Response Area (TOV-21G; [29]): 4.33
- Response Area (TOV-21G; [30]): 7.56
- Best CI (TOV-21G; [31]): 0.76
- Best CI Level (TOV-21G; [31]): 20
- Bliss Volume (TOV-21G; [31]): −1.60
- HSA volume (TOV-21G; [31]): −1.29
- Loewe Volume (TOV-21G; [31]): −1.80
- Synergy Score (TOV-21G; [31]): 0.60

Compound: C=CC(=O)N1CCN(c2nc(=O)n(-c3c(C)ccnc3C(C)C)c3nc(-c4c(O)cccc4F)c(F)cc23)[C@@H](C)C1 [AMG510]
- Best CI (HCC44; [1]): 0.63
- Bliss Volume (HCC44; [1]): 2.46
- HSA volume (HCC44; [1]): 2.64
- Loewe Volume (HCC44; [1]): 2.30
- Synergy Score (HCC44; [1]): 4.36
- Response Area (HCC44; [2]): 1.52
- Response Area (HCC44; [3]): 1.97
- EC50 (HCC44; [4]): 4.1 nM
- EC50 (HCC44; [5]): 4.6 nM
- Emax (HCC44; [6]): 32%
- Emax (HCC44; [7]): 41%
- Best CI (HCC44; [8]): 0.67
- Bliss Volume (HCC44; [8]): −0.82
- HSA volume (HCC44; [8]): 1.08
- Loewe Volume (HCC44; [8]): 0.97
- Synergy Score (HCC44; [8]): 1.16
- Best CI Level (HCC44; [8]): 45%
- Best CI (HPAF-II; [9]): 0.06
- Bliss Volume (HPAF-II; [9]): −3.31
- HSA volume (HPAF-II; [9]): −4.44
- Loewe Volume (HPAF-II; [9]): −3.46
- Synergy Score (HPAF-II; [9]): 0.12
- Response Area (HPAF-II; [10]): 0.32
- Response Area (HPAF-II; [11]): 0.47
- EC50 (HPAF-II; [12]): 2400 nM
- EC50 (HPAF-II; [13]): 2540 nM
- Emax (HPAF-II; [14]): 11%
- Emax (HPAF-II; [15]): 15%
- Best CI (HPAF-II; [16]): 1.03
- Bliss Volume (HPAF-II; [16]): −2.30
- HSA volume (HPAF-II; [16]): −3.13
- Loewe Volume (HPAF-II; [16]): −2.28
- Synergy Score (HPAF-II; [16]): 0.09
- Best CI Level (HPAF-II; [16]): 20%
- EC50 (LS-513; [17]): 321 nM
- EC50 (LS-513; [18]): 320 nM
- Emax (LS-513; [19]): 3%
- Emax (LS-513; [20]): 4%
- Best CI (LS-513; [21]): 0.70
- Bliss Volume (LS-513; [21]): 0.20
- HSA volume (LS-513; [21]): −2.06
- Loewe Volume (LS-513; [21]): −0.76
- Synergy Score (LS-513; [21]): 1.51
- Response Area (LS-513; [22]): −0.19
- Response Area (LS-513; [23]): −0.23
- Best CI (LS-513; [24]): 0.82
- Best CI Level (LS-513; [24]): 20
- Bliss Volume (LS-513; [24]): −0.02
- HSA volume (LS-513; [24]): −1.47
- Loewe Volume (LS-513; [24]): −0.89
- Synergy Score (LS-513; [24]): 0.37
- EC50 (MIA PaCa-2; [32]): 5.7 nM
- IC50 (MIA PaCa-2; [32]): 14.7 nM
- Emax (MIA PaCa-2; Homo sapiens, MIA PaCa-2, Pancreas, Additional Single Agent Responses, 72 h, read-out: Max Response (% I)): 63%
- GI50 (MIA PaCa-2; Homo sapiens, MIA PaCa-2, Pancreas, growth inhibition (GI) curve, single agent, 72 h): 9.2 nM
- Emax (MIA PaCa-2; Homo sapiens, MIA PaCa-2, Pancreas, growth inhibition (GI), single agent, 72 h, read-out: Max Response (% GI)): 77%
- Best CI (MIA PaCa-2; [33]): 0.65
- Bliss Volume (MIA PaCa-2; [33]): 3.75
- HSA volume (MIA PaCa-2; [33]): 5.03
- Loewe Volume (MIA PaCa-2; [33]): 4.68
- Synergy Score (MIA PaCa-2; [33]): 6.04
- Response Area (MIA PaCa-2; MIA PaCa-2, Pancreas, Additional Single Agent Responses (inhibition, % I), 72 h): 3.12
- Response Area (MIA PaCa-2; MIA PaCa-2, Pancreas, growth inhibition (GI), AUC, single agent, 72 h): 3.77
- Best CI (MIA PaCa-2; [34]): 0.60
- Best CI Level (MIA PaCa-2; [34]): 75
- Bliss Volume (MIA PaCa-2; [34]): 0.19
- HSA volume (MIA PaCa-2; [34]): 2.76
- Loewe Volume (MIA PaCa-2; [34]): 2.52
- Synergy Score (MIA PaCa-2; [34]): 2.16
- EC50 (TOV-21G; [25]): 3000 nM
- Emax (TOV-21G; [26]): 7%
- Emax (TOV-21G; [27]): 9%
- Best CI (TOV-21G; [28]): 0.37
- Bliss Volume (TOV-21G; [28]): 2.49
- HSA volume (TOV-21G; [28]): −6.11
- Loewe Volume (TOV-21G; [28]): −3.64
- Synergy Score (TOV-21G; [28]): 0.49
- Response Area (TOV-21G; [29]): −0.01
- Response Area (TOV-21G; [30]): −0.01
- Best CI (TOV-21G; [31]): 0.45
- Best CI Level (TOV-21G; [31]): 20
- Bliss Volume (TOV-21G; [31]): 2.55
- HSA volume (TOV-21G; [31]): −4.28
- Loewe Volume (TOV-21G; [31]): −2.46
- Synergy Score (TOV-21G; [31]): 0.33
